Earlier results on 4 molecules are cited in PMC7651685 (Psychopharmacology, 2020).

For series [1], the system named is DAT. Conditions: ref Markowitz et al. [2006]; read-out: Affinity for DAT, IC50; cited from earlier work.
The conditions of series [2]: no reference given; cited from earlier work.
The subject of series [3] is dopamine efflux in the nucleus accumbens. The arrangement: method as in Rowley et al. [2017]. Conditions: rat nucleus accumbens microdialysis; ref Rowley et al. [2017]; cited from earlier work.

As to `COC(=O)[C@H](c1ccccc1)[C@H]1CCCCN1` [d-threo methylphenidate, reference compound], the IC50 (as a rule, the concentration that gives 50% inhibition) in series [1] was […].

Take `O=C(O)C(c1ccccc1)C1CCCCN1` (stereo not shown) [ritalinic acid]: the Pharmacological activity entry in series [2] was “pharmacologically inactive”.

In the case of `CC(C)(N)Cc1ccccc1` [phentermine], the “Time of peak of dopamine efflux” value in series [3] is given as 40 min.

Consider `C[C@H](N)Cc1ccccc1` [d-amphetamine], for which the “Time of peak of dopamine efflux” value in series [3] was 40 min.
